Test system: acute hepatic insufficiency induced by acetaminophen
Experiment: Survival of mice after intraperitoneal acetaminophen (acute hepatic insufficiency)
Protocol: The intraperitoneal injection of acetaminophen into mice induces a severe hepatotoxicity, the degree of which may be evaluated by the survival of the animals, measuring transaminase activities, and macroscopic and microscopic examination of the livers.
The acetaminophen in solution at 100 mg/ml in PBS at pH 7.4 is administered by the intraperitoneal route.
In a first series of experiments, a group of mice received a dose of 1000 mg/kg of acetaminophen; a second group received a dose of 1000 mg/kg of acetaminophen and a dose of 10 mg/kg of MnTBAP administered either 2 h before the acetaminophen or 6 h after; a control group received either MnTBAP alone (10 mg/kg), or PBS alone.
The survival of the animals is monitored for 24 hours after the administration of acetaminophen.
The effect of N-acetyl-L-cysteine (NAC), of CuDIPS, and of MnTBAP on the survival of mice after intraperitoneal injection of 1000 mg/kg of acetaminophen (APAP) was compared.
MnTBAP, NAC, or CuDIPS are administered in the form of a bolus, preventively, 2 hours before (P) or, curatively, 6 hours after (C) the acetaminophen.
The survival of the animals is monitored for 24 hours after administration of acetaminophen.

## O=C(O)c1ccc(-c2c3nc(c(-c4ccc(C(=O)O)cc4)c4ccc([n-]4)c(-c4ccc(C(=O)O)cc4)c4nc(c(-c5ccc(C(=O)O)cc5)c5ccc2[n-]5)C=C4)C=C3)cc1.[Mn+3] [MnTBAP, Mn(III) tetrakis(5,10,15,20-benzoic acid)porphyrin]
Group V: APAP 1000 mg/kg, MnTBAP 10 mg/kg (P), time 16 h
  percentage of surviving animals: 68.6%
Group V: APAP 1000 mg/kg, MnTBAP 10 mg/kg (P), time 17 h
  percentage of surviving animals: 68.6%
Group V: APAP 1000 mg/kg, MnTBAP 10 mg/kg (P), time 18 h
  percentage of surviving animals: 65.7%
Group V: APAP 1000 mg/kg, MnTBAP 10 mg/kg (P), time 20 h
  percentage of surviving animals: 65.7%
Group V: APAP 1000 mg/kg, MnTBAP 10 mg/kg (P), time 22 h
  percentage of surviving animals: 65.7%
Group V: APAP 1000 mg/kg, MnTBAP 10 mg/kg (P), time 24 h
  percentage of surviving animals: 62.9%
Group VI: APAP 1000 mg/kg, MnTBAP 20 mg/kg (P), time 0 h
  percentage of surviving animals: 100%
Group VI: APAP 1000 mg/kg, MnTBAP 20 mg/kg (P), time 6 h
  percentage of surviving animals: 100%
Group VI: APAP 1000 mg/kg, MnTBAP 20 mg/kg (P), time 8 h
  percentage of surviving animals: 100%
Group VI: APAP 1000 mg/kg, MnTBAP 20 mg/kg (P), time 9 h
  percentage of surviving animals: 100%
Group VI: APAP 1000 mg/kg, MnTBAP 20 mg/kg (P), time 10 h
  percentage of surviving animals: 100%
Group VI: APAP 1000 mg/kg, MnTBAP 20 mg/kg (P), time 11 h
  percentage of surviving animals: 100%
Group VI: APAP 1000 mg/kg, MnTBAP 20 mg/kg (P), time 12 h
  percentage of surviving animals: 100%
Group VI: APAP 1000 mg/kg, MnTBAP 20 mg/kg (P), time 13 h
  percentage of surviving animals: 100%
Group VI: APAP 1000 mg/kg, MnTBAP 20 mg/kg (P), time 14 h
  percentage of surviving animals: 100%
Group VI: APAP 1000 mg/kg, MnTBAP 20 mg/kg (P), time 15 h
  percentage of surviving animals: 90%
Group VI: APAP 1000 mg/kg, MnTBAP 20 mg/kg (P), time 16 h
  percentage of surviving animals: 90%
Group VI: APAP 1000 mg/kg, MnTBAP 20 mg/kg (P), time 17 h
  percentage of surviving animals: 90%
Group VI: APAP 1000 mg/kg, MnTBAP 20 mg/kg (P), time 18 h
  percentage of surviving animals: 90%
Group VI: APAP 1000 mg/kg, MnTBAP 20 mg/kg (P), time 20 h
  percentage of surviving animals: 90%
Group VI: APAP 1000 mg/kg, MnTBAP 20 mg/kg (P), time 22 h
  percentage of surviving animals: 90%
Group VI: APAP 1000 mg/kg, MnTBAP 20 mg/kg (P), time 24 h
  percentage of surviving animals: 90%
Group VII: APAP 1000 mg/kg, MnTBAP 10 mg/kg (C), time 0 h
  percentage of surviving animals: 100%
Group VII: APAP 1000 mg/kg, MnTBAP 10 mg/kg (C), time 6 h
  percentage of surviving animals: 100%
Group VII: APAP 1000 mg/kg, MnTBAP 10 mg/kg (C), time 8 h
  percentage of surviving animals: 100%
Group VII: APAP 1000 mg/kg, MnTBAP 10 mg/kg (C), time 9 h
  percentage of surviving animals: 100%
Group VII: APAP 1000 mg/kg, MnTBAP 10 mg/kg (C), time 10 h
  percentage of surviving animals: 94%
Group VII: APAP 1000 mg/kg, MnTBAP 10 mg/kg (C), time 11 h
  percentage of surviving animals: 94%
Group VII: APAP 1000 mg/kg, MnTBAP 10 mg/kg (C), time 12 h
  percentage of surviving animals: 81%
Group VII: APAP 1000 mg/kg, MnTBAP 10 mg/kg (C), time 13 h
  percentage of surviving animals: 69%
Group VII: APAP 1000 mg/kg, MnTBAP 10 mg/kg (C), time 14 h
  percentage of surviving animals: 69%
Group VII: APAP 1000 mg/kg, MnTBAP 10 mg/kg (C), time 15 h
  percentage of surviving animals: 69%
Group VII: APAP 1000 mg/kg, MnTBAP 10 mg/kg (C), time 16 h
  percentage of surviving animals: 56%
Group VII: APAP 1000 mg/kg, MnTBAP 10 mg/kg (C), time 17 h
  percentage of surviving animals: 56%
Group VII: APAP 1000 mg/kg, MnTBAP 10 mg/kg (C), time 18 h
  percentage of surviving animals: 56%
Group VII: APAP 1000 mg/kg, MnTBAP 10 mg/kg (C), time 20 h
  percentage of surviving animals: 56%
Group VII: APAP 1000 mg/kg, MnTBAP 10 mg/kg (C), time 22 h
  percentage of surviving animals: 56%
Group VII: APAP 1000 mg/kg, MnTBAP 10 mg/kg (C), time 24 h
  percentage of surviving animals: 44%
Group VIII: APAP 1000 mg/kg, MnTBAP 20 mg/kg (C), time 0 h
  percentage of surviving animals: 100%
Group VIII: APAP 1000 mg/kg, MnTBAP 20 mg/kg (C), time 6 h
  percentage of surviving animals: 100%
Group VIII: APAP 1000 mg/kg, MnTBAP 20 mg/kg (C), time 8 h
  percentage of surviving animals: 100%
Group VIII: APAP 1000 mg/kg, MnTBAP 20 mg/kg (C), time 9 h
  percentage of surviving animals: 100%
Group VIII: APAP 1000 mg/kg, MnTBAP 20 mg/kg (C), time 10 h
  percentage of surviving animals: 100%
Group VIII: APAP 1000 mg/kg, MnTBAP 20 mg/kg (C), time 11 h
  percentage of surviving animals: 100%
Group VIII: APAP 1000 mg/kg, MnTBAP 20 mg/kg (C), time 12 h
  percentage of surviving animals: 90%
Group VIII: APAP 1000 mg/kg, MnTBAP 20 mg/kg (C), time 13 h
  percentage of surviving animals: 90%
Group VIII: APAP 1000 mg/kg, MnTBAP 20 mg/kg (C), time 14 h
  percentage of surviving animals: 90%
Group VIII: APAP 1000 mg/kg, MnTBAP 20 mg/kg (C), time 15 h
  percentage of surviving animals: 90%
Group VIII: APAP 1000 mg/kg, MnTBAP 20 mg/kg (C), time 16 h
  percentage of surviving animals: 90%
Group VIII: APAP 1000 mg/kg, MnTBAP 20 mg/kg (C), time 17 h
  percentage of surviving animals: 80%
Group VIII: APAP 1000 mg/kg, MnTBAP 20 mg/kg (C), time 18 h
  percentage of surviving animals: 80%
Group VIII: APAP 1000 mg/kg, MnTBAP 20 mg/kg (C), time 20 h
  percentage of surviving animals: 70%
Group VIII: APAP 1000 mg/kg, MnTBAP 20 mg/kg (C), time 22 h
  percentage of surviving animals: 70%
Group VIII: APAP 1000 mg/kg, MnTBAP 20 mg/kg (C), time 24 h
  percentage of surviving animals: 70%
MnTBAP alone 10 mg/kg ip, no acetaminophen, 24 hours
  death of animals: No death

Source: US20030118577A1, “Use of analogues of superoxide dismutase for treating hepatocellular insufficiencies” (priority 2000, published 2003)
